From article PMC10859961, “Ir(III) Half-Sandwich Photosensitizers with a π-Expansive Ligand for Efficient Anticancer Photodynamic Therapy” (Journal of Medicinal Chemistry, 2024)
Several values for one entry are separate records, joined by “and”; a condition that tells them apart may be missing. Equal values may be shown once. Read-outs that look alike come from different tables or passages of the source.

Assays:
[1] = Stability and photostability studies by 1H NMR; type: physicochemical
Description: Solutions of complexes 1 and 6 at 3.2 mM and 2 at 0.6 mM in DMSO-d6 and DMSO-d6/D2O mixture (9:1, v/v) were prepared.

[2] = test system: A549; experiment: CyQUANT cell viability assay, dark or blue light; type: cell-based, human; conditions: for PI/Dose / IC50 / PI (IC50,dark/IC50,light): A549; for PI/Dose: 460 nm, dose 24.1 J cm‐2, PI from CyQUANT; for IC50: 48 h; for IC50 / PI (IC50,dark/IC50,light) / photoselectivity: IC50,light in A549 lower than IC50,dark in MRC-5 / phototoxicity indexes: CyQUANT; for PI (IC50,dark/IC50,light): blue light 460 nm; for photoselectivity: IC50,light in A549 lower than IC50,dark in MRC-5: A549 blue light vs nonirradiated MRC-5 lung fibroblasts; for phototoxicity indexes: three cancer cell lines (A549, HeLa, PC-3), blue light
Description: (§1) Cells were cultured in 96-well plates at a density of 3000 (A549), 2500 (HeLa), or 5000 (PC-3, 1BR.3.G, and MRC-5) cells per well in cell culture medium and allowed to attach for 24 h. Solutions of the complexes at different concentrations were prepared for cell treatments. In all cases, the solid compounds were weighed using an analytical balance (Mettler Toledo AX205DR) to ensure precise measurements. Subsequently, 5 mM solutions were prepared using DMSO. Solutions were then diluted in water to reach a concentration of 1 mM and then, aliquots were taken and diluted in culture medium to obtain solutions ranging from 0 to 50 μM. […] The cells were treated with these solutions in dark conditions or following the photoactivation protocol (see below). 48 h later the treatments were removed, and cells were washed with phosphate-buffered saline (PBS).
(§2) Initially, the effect of the complexes on the cell viability was determined by the 3-(4,5-dimethylthiazol-2-yl)-2,5-diphenyltetrazolium bromide (MTT) assay.[147] The cells were incubated for 2 h with 100 μL of culture medium together with 10 μL of MTT (Sigma-Aldrich) at 0.5 mg/mL. After discarding the medium, DMSO was added to each well to dissolve the purple formazan crystals. The absorbance of each well was determined on a Multiscan Plate Reader (Synergy 4, Biotek, Winooski) at a wavelength of 570 nm. Cell viability was also assessed using the CyQUANT Direct Cell Proliferation Assay (Thermo Fisher Scientific), following the manufacturer’s instructions. Briefly, after the treatments, the cells were washed with PBS, and an equal volume of culture medium and CyQUANT mix was added to each well. The plates were then incubated for 1 h at 37 °C. Subsequently, the fluorescence intensity was bottom read using a Multiscan Plate Reader (Synergy 4, Biotek, Winooski) with excitation and emission filters of 485 and 528 nm, respectively. In both assays, at least three replicates were measured for each treatment. The concentration that reduces the cell viability by 50% (IC50) was established using the Gen5 software (BioTek). Three independent experiments were carried out for each compound. […] The phototoxicity index (PI = IC50,dark/IC50,light) was determined.
(§3) To assess the photodynamic activity of the complexes, cells were incubated with the complexes for 4 h to enable their intracellular accumulation. The cells were then irradiated with light with a wavelength of 460 nm (blue), 530 nm (green), or 655 nm (red) for 1 h using a LED system (LuxLight) with an effective power of 6.7 mW cm^–2, which provides a total light dose of 24.1 J cm^–2. The LED system was positioned at 25 mm from the cell culture plates.

[3] = test system: HeLa; experiment: CyQUANT cell viability assay, dark or blue light; type: cell-based, human; conditions: for IC50: 48 h; for IC50 / PI (IC50,dark/IC50,light): CyQUANT; for PI (IC50,dark/IC50,light): blue light 460 nm
Description: as §1, §2, §3

[4] = test system: A549 cells; experiment: Trypan blue exclusion test; type: cell-based, human; conditions: complexes at respective IC50 in the dark, 24 h
Description: To assess the cytotoxicity of the complexes, A549 cells were seeded in 96-well plates and treated with the complexes at the respective IC50,dark value. After 24 h of incubation, 10 μL of Trypan Blue (0.4% solution; Sigma) was added directly to the wells to avoid loss of dead cells in the treatment washes. After 10 min, images of the cells were captured using an Olympus CKX41 Microscope equipped with LCmicro software (Olympus).

[5] = pKa determination (absorbance vs pH); type: physicochemical; conditions: DMSO/H2O (2/98, v/v), Bu4NBF4 5 mM; piperidine ring
Description: Solutions of complexes 5 and 6 (2.00 × 10^–5 M) and Imepip ligand (2.00 × 10^–3 M) in H2O/DMSO (98/2, v/v) mixture with n-Bu4NBF4 (5 mM) were prepared. The presence of the salt ensured the conductivity of the media. Evolution of the peaks was studied at different pH by recording the absorbance spectrum. Aliquots of 10 μL of HCl (0.002–0.020 M) or NaOH (0.002–0.020 M) were added to a solution of 2.4 mL of complex to vary the pH. The absorbance versus pH plot enables us to determine one constant according to the equation from the Wilson and Lester method (eq 2):[146] [drawing 23] 2 where Aa is the absorbance for the acid species, Ab is the absorbance for the basic species, and Am is the absorbance of the mixture. The intersection obtained by representing log(Am – Aa)/(Ab – Am) versus pH provides the pKa.

[6] = test system: A549 cells; experiment: Subcellular distribution (cell fractionation, ICP-MS); type: cell-based, human; conditions: 10 μM, 4 h, 37 °C
Description: The intracellular distribution of complex 6 was explored by measuring the iridium content in different cellular compartments: nucleus, membrane/particulate (which includes cellular organelles and organelle’s membrane proteins), cytosol, and cytoskeleton. To this end, 8 × 10^6 A549 cells were incubated with 6 at 10 μM for 4 h in the dark at 37 °C. Then, the cells were washed twice with PBS, detached with trypsin, and centrifuged to obtain the whole cell pellet. The viability of the cells was assessed through Trypan blue staining, which confirmed that over 95% of the cells were viable. The different cell fractions were then isolated using the FractionPREP Cell Fractionation kit (BioVision) and the total iridium content in each fraction was measured by ICP-MS in two independent experiments, as described above.

[7] = blue light 460 nm 1 h (24.1 J cm^–2), read-out: IC50,light

For `Cc1c(C)c(C)[c-](C)c1C.[Cl][Ir]1[c]2cccc3c4nc5ccccc5nc4c4ccc[n+]1c4c23` [complex 1, [(η^5-C5Me5)IrCl(pbpz)]], the “Percentage of species (chlorido complex remaining / aqua adduct formed), 1H NMR” value ([1]; DMSO‐d6, dark, 0 h) was 100%, the “Percentage of species (chlorido complex remaining / aqua adduct formed), 1H NMR” value ([1]; DMSO‐d6, dark, 0.5 h) was 78% and the “Percentage of species (chlorido complex remaining / aqua adduct formed), 1H NMR” value ([1]; DMSO‐d6, dark, 1 h) was 76%. For the same compound, the “Percentage of species (chlorido complex remaining / aqua adduct formed), 1H NMR” value ([1]; DMSO‐d6, dark, 1.5 h) was 75%, the “Percentage of species (chlorido complex remaining / aqua adduct formed), 1H NMR” value ([1]; DMSO‐d6, dark, 2.5 h) was 72% and the “Percentage of species (chlorido complex remaining / aqua adduct formed), 1H NMR” value ([1]; DMSO‐d6, dark, 4.5 h) was 71%. The “Percentage of species (chlorido complex remaining / aqua adduct formed), 1H NMR” value ([1]; DMSO‐d6, dark, 6 h) was 70%, the “Percentage of species (chlorido complex remaining / aqua adduct formed), 1H NMR” value ([1]; DMSO‐d6, dark, 8 h) was 69% and the “Percentage of species (chlorido complex remaining / aqua adduct formed), 1H NMR” value ([1]; DMSO‐d6, dark, 10 h) was 68%. For the same compound, the “Percentage of species (chlorido complex remaining / aqua adduct formed), 1H NMR” value ([1]; DMSO‐d6, dark, 32 h) was 57%, the “Percentage of species (chlorido complex remaining / aqua adduct formed), 1H NMR” value ([1]; DMSO‐d6, dark, 50 h) was 49% and the “Percentage of species (chlorido complex remaining / aqua adduct formed), 1H NMR” value ([1]; DMSO‐d6, dark, 70 h) was 40%. The “Percentage of species (chlorido complex remaining / aqua adduct formed), 1H NMR” value ([1]; DMSO‐d6, dark, 97 h) was 35%, the “Percentage of species (chlorido complex remaining / aqua adduct formed), 1H NMR” value ([1]; DMSO‐d6/D2O (9/1), dark, 0 h) was 100% and the “Percentage of species (chlorido complex remaining / aqua adduct formed), 1H NMR” value ([1]; DMSO‐d6/D2O (9/1), dark, 0.5 h) was 4%. The “Percentage of species (chlorido complex remaining / aqua adduct formed), 1H NMR” value ([1]; DMSO‐d6/D2O (9/1), dark, 1 h) was 0.5%, the “Percentage of species (chlorido complex remaining / aqua adduct formed), 1H NMR” value ([1]; DMSO‐d6/D2O (9/1), dark, 1.5 h) was 0% and the “Percentage of species (chlorido complex remaining / aqua adduct formed), 1H NMR” value ([1]; DMSO‐d6/D2O (9/1), dark, 2.5 h) was 0%. The “Percentage of species (chlorido complex remaining / aqua adduct formed), 1H NMR” value ([1]; DMSO‐d6/D2O (9/1), dark, 4.5 h) was 0%, the “Percentage of species (chlorido complex remaining / aqua adduct formed), 1H NMR” value ([1]; DMSO‐d6/D2O (9/1), dark, 6 h) was 0% and the “Percentage of species (chlorido complex remaining / aqua adduct formed), 1H NMR” value ([1]; DMSO‐d6/D2O (9/1), dark, 8 h) was 0%. The “Percentage of species (chlorido complex remaining / aqua adduct formed), 1H NMR” value ([1]; DMSO‐d6/D2O (9/1), dark, 10 h) was 0%, the “Percentage of species (chlorido complex remaining / aqua adduct formed), 1H NMR” value ([1]; DMSO‐d6/D2O (9/1), dark, 32 h) was 0% and the “Percentage of species (chlorido complex remaining / aqua adduct formed), 1H NMR” value ([1]; DMSO‐d6/D2O (9/1), dark, 50 h) was 0%. The “Percentage of species (chlorido complex remaining / aqua adduct formed), 1H NMR” value ([1]; DMSO‐d6/D2O (9/1), dark, 70 h) was 0% and the “Percentage of species (chlorido complex remaining / aqua adduct formed), 1H NMR” value ([1]; DMSO‐d6/D2O (9/1), dark, 97 h) was 0%.
In the case of `Cc1c(C)c(C)[c-](C)c1C.F[B-](F)(F)F.c1ccc(Cn2cc[n+]([Ir]3[c]4cccc5c6nc7cc8ccccc8cc7nc6c6ccc[n+]3c6c45)c2)cc1` [complex 8, [(η^5-C5Me5)Ir(bzIm)(pbpn)]BF4], the PI/Dose [2] is reported as 52.3, the IC50 [2, 7] is reported as 0.4 ± 0.3 nM and the “PI (IC50,dark/IC50,light)” value [2] is reported as 1260. The IC50 ([2]; dark, read-out: IC50,dark) was 500 ± 200 nM, the “photoselectivity: IC50,light in A549 lower than IC50,dark in MRC-5” value [2] was 1700 times and the phototoxicity indexes [2] was “approximately 1000”. The IC50 [3, 7] was 0.8 ± 0.2 nM, the “PI (IC50,dark/IC50,light)” value [3] was 622 and the IC50 ([3]; dark, read-out: IC50,dark) was 510 ± 100 nM. For the same compound, the “proportion of cells with uptake of trypan blue dye” value (“proportion of cells” below) [4] was 23%.
For `Cc1c(C)c(C)[c-](C)c1C.F[B-](F)(F)F.c1ccc2nc3c4ccc[n+]5c4c4[c](cccc4c3nc2c1)[Ir]5[n+]1ccn(CCN2CCCCC2)c1` [complex 5, [(η^5-C5Me5)Ir(Imepip)(pbpz)]BF4], the pKa [5] was 7.2 and 7.19.
In the case of `Cc1c(C)c(C)[c-](C)c1C.F[B-](F)(F)F.c1ccc2cc3nc4c5ccc[n+]6c5c5[c](cccc5c4nc3cc2c1)[Ir]6[n+]1cc[nH]c1` [complex 4, [(η^5-C5Me5)Ir(Im)(pbpn)]BF4], the PI/Dose ([2]; listed as 4) is reported as 84, the PI/Dose ([2]; listed as Complex 4) is reported as 84.4 and the IC50 [2, 7] is reported as 1 ± 0.4 nM. The “PI (IC50,dark/IC50,light)” value [2] was 2034, the IC50 ([2]; dark, read-out: IC50,dark) was 2100 ± 600 nM and the “photoselectivity: IC50,light in A549 lower than IC50,dark in MRC-5” value [2] was 2480 times. For the same compound, the phototoxicity indexes [2] was “approximately 1000”, the IC50 [3, 7] was 4.2 ± 0.9 nM and the “PI (IC50,dark/IC50,light)” value [3] was 370. The IC50 ([3]; dark, read-out: IC50,dark) was 1550 ± 300 nM and the “proportion of cells” value [4] was 54%.
In the case of `Cc1c(C)c(C)[c-](C)c1C.F[B-](F)(F)F.c1ccc2cc3nc4c5ccc[n+]6c5c5[c](cccc5c4nc3cc2c1)[Ir]6[n+]1ccn(CCN2CCCCC2)c1` [complex 6, [(η^5-C5Me5) Ir(Imepip)(pbpn)]BF4], the IC50 [2, 7] is reported as 0.4 ± 0.2 nM, the “PI (IC50,dark/IC50,light)” value [2] is reported as 911 and the IC50 ([2]; dark, read-out: IC50,dark) is reported as 330 ± 200 nM. For the same compound, the “photoselectivity: IC50,light in A549 lower than IC50,dark in MRC-5” value [2] was 1750 times, the phototoxicity indexes [2] was “approximately 1000” and the PI/Dose ([3]; 460 nm, dose 24.1 J cm‐2, PI from CyQUANT) was 42.7. For the same compound, the IC50 [3, 7] was 0.7 ± 0.2 nM, the “PI (IC50,dark/IC50,light)” value [3] was 1031 and the IC50 ([3]; dark, read-out: IC50,dark) was 700 ± 270 nM. For the same compound, the “proportion of cells” value [4] was 53%, the “iridium in cytoskeletal fraction” value [6] was 11.0 ± 4 ng Ir/10^6 cells and the “iridium in cytosolic fraction” value [6] was 4.6 ± 2 ng Ir/10^6 cells. For the same compound, the “iridium in membrane/organelles fraction” value [6] was 140.8 ± 20 ng Ir/10^6 cells, the “iridium in nuclear fraction” value [6] was 7.1 ± 4 ng Ir/10^6 cells and the pKa [5] was 7.8 and 7.85. The “release of the N-donor ligand (1H NMR)” value ([1]; DMSO-d6/D2O (9/1), dark or blue, green or red light irradiation) was “not observed”.
